Tests used:
dogs = assay: Blood pressure, heart rate, ECG and body temperature in conscious dogs (GLP); format: in vivo
Experimental: The dogs had telemetry transmitters for arterial blood pressure, body temperature and ECG measurements. The study was conducted in two parts.

[1] = GLP mutagenic and genotoxic studies (Ames, chromosome aberration, micronucleus); settings: GLP in vitro and in vivo studies
Experimental: The dose of 816 µg per plate is approximately a concentration of 84 µM.
Human lymphocytes were taken from young (18–35 years old) healthy non-smoker individuals.
This assay was carried out both with and without metabolic activation using Aroclor 1254-induced S9 from rat livers (5%). In the test performed without metabolic activation, two treatment durations were studied: (1) 4 h + 16 h recovery period (short-term treatment) and (2) 20 h without recovery period (continuous treatment). In the test performed with metabolic activation, the treatment period of 4 h + 16 h recovery period with 5% S9 mix was used.
As a control for the genotoxicity induction, a single i.p. injection 24 h before sampling of the reference substance cyclophosphamide (CPA, Baxter, batch 5K044J in NaCl at 0.9% in distilled water, at a dose of 25 mg kg^−1 under a volume of 10 ml kg^−1) was used.

[2] = 91-d repeated oral toxicity study in rats (GLP); format: in vivo; settings: both sexes, Sprague Dawley SPF, rat, in vivo, rats
rats = assay: 91-d repeated oral toxicity study in rats (GLP); format: in vivo; settings: for change in blood urea level: male rats, week 14
CD-1 Swiss male mice = assay: i.v. self-administration of WIN55,212-2 in mice; format: in vivo
Experimental: Before the start of the self-administration sessions, mice were implanted under anesthesia with catheters into the right jugular vein. […] Mice were trained under a fixed ratio 1 (FR1) schedule of reinforcement.
Two-hour daily self-administration sessions were conducted 6 d per week for 18 d. Mice received corn oil vehicle (2 ml kg^–1) orally on days 9 and 10 to be habituated to the oral gavage procedure.

mice [3] = assay: THC-induced decrease in social interaction; format: in vivo
mice [4] = assay: Precipitated withdrawal in THC-dependent mice; format: in vivo; settings: highest dose tested […]
Experimental: From day 1 to days 4–5, mice were injected i.p. with vehicle or THC (20 mg kg^−1) twice per day. On the last day of treatment, mice in the THC group received rimonabant or AEF0117. All other animals received the respective vehicle. […] For the measure of precipitated withdrawal, mice were placed in a novel home cage, and a video camera was positioned in front of each cage to record behavior. Scoring was performed for 1 min every 5-min period. Two withdrawal signs were analyzed—paw tremors and head shaking—because they are the most common signs of THC withdrawal observed in mice[14].

mice [5] = assay: Glucocorticoid (corticosterone) secretion in mice; format: in vivo; settings: mice, highest dose tested 10 mg/kg
Experimental: Blood sampling was performed 2, 5, 8 and 24 h after dosing (n = 3 per sex per dose per sampling time). For blood sampling, mice were anaesthetized under isoflurane, and blood was collected by cardiac puncture. Blood was centrifuged, and plasma was taken and frozen at −80 °C until quantifications of corticosterone by GC–MS/MS.

healthy volunteers = format: in vivo, human; settings: MAD
Experimental: Participants were admitted to the research clinic at midday before dosing (day −1). In the SAD study, they remained in-house until day 8 for PK and PD samples and safety assessments. In the MAD study, participants remained in-house until day 14 and returned to the research facility on an outpatient basis to have PK and safety assessments at 216 h and 264 h (day 16 and day 18) after their last dose (day 7). Safety monitoring (physical examinations, vital sign measurements, 12-lead ECGs, clinical safety laboratory tests and AE monitoring) were performed throughout the studies. Psychometrics tests (Bond & Lader VAS, Addiction Research Center Inventory (49-item short form) (ARCI-49) and Profile of Mood States 65 self-report items (POMS-65)) and the Columbia-Suicide Severity Rating Scale (C-SSRS) test were performed at baseline, before dose and at 4 h and 24 h after dose on day 1 and day 7 (MAD study, only) and C-SSRS only at 24 h.

volunteers with CUD = assay: Phase 2a study, cannabis self-administration; format: in vivo, human
Experimental: Participants, in groups of 3−4, completed two 5-d inpatient periods (first period ‘A’ and second period ‘B’) separated by a ≥ 14-d outpatient washout. During the two testing periods, participants received AEF0117 or matching placebo in counterbalanced order (two dosing sequences: AEF0117 first or placebo first). Participants took capsules at 9:00 each day and then smoked a controlled amount of cannabis (approximately 67 mg of THC smoked over 6 min) 3.5 h later (12:30). Ratings of the subjective effects of cannabis were done five times after cannabis administration (20 min, 40 min, 60 min, 90 min and 120 min after cannabis) using a VAS (0–100 mm). […] Participants were told that the cannabis strength could vary from day to day and between participants but that the cannabis they each received at 12:30 that day was the strength available for self-administration that day.
On study days 2–5, beginning at 14:30, participants were given the option to self-administer individual puffs of cannabis (up to six puffs per timepoint) every 2 h until 20:30 (maximum of 24 puffs per day). Fifteen minutes before each self-administration opportunity, participants indicated the number of puffs they chose to purchase ($2 per puff), and they would pay for it (using faux money that was then subtracted from their study stipend) before receiving their individual ashtray, cannabis cigarette and lighter.

[6] = Exposure at the highest dose tested in animals without toxicity; format: in vivo; settings: human, plasma; exposure limit for humans
Experimental: The planned dose-escalation schema for the SAD study was based on preclinical pharmacodynamics (PD), safety and toxicology data translated to humans using body surface ratios to ensure a large safety margin. For the MAD study, safety and PK data from the SAD study were used to determine doses. In both studies, all safety data for a given cohort/dose level were evaluated by a Data Safety Monitoring Board that was guided by predefined stopping criteria. The stopping criteria were based on the seriousness and severity combined with frequency of AEs that would lead to either not proceeding to the next dose level or stopping the trial. Dose escalation was also to be halted if the peak plasma levels exceeded that corresponding to the NOAEL in the most sensitive animal species (that is, the rat) in preclinical toxicology studies.

[7] = target: GR (glucocorticoid receptor) (Homo sapiens, UniProt P04150); assay: Eurofins binding screen; settings: read-out: Percent inhibition of control specific binding
human CB1 = human CB1 (Homo sapiens, UniProt P21554); assay: THC-induced decrease in cAMP in CHO-hCB1 cells; format: cell-based; parameters: host or cells: CHO-K1
Experimental: CHO cells stably expressing the human CB1 receptor (CHO-hCB1) were used in these experiments (ES-110C, PerkinElmer).
CHO-hCB1 cells were treated by concomitantly adding THC and the test compound for 45 min. Forskolin (2.5 µM) was also simultaneously added in all the conditions tested to sustain cAMP basal level. At the end of the treatment, cells were lysed for cAMP quantification. All measures were performed in triplicate in one experiment.
The quantitative determination of cAMP was done using a competitive fluorescence immunoassay. Data were expressed as % of Δ fluorescence (ΔF) that was calculated as follows: ΔF% = (sample fluorescence − negative control fluorescence) / negative control fluorescence. These experiments were done by the CRO Fluofarma.

[8] = Self-administration of WIN 55,212-2, mice
[9] = Impairment of social interaction

Sequence of human CB1 (P21554 whole entry): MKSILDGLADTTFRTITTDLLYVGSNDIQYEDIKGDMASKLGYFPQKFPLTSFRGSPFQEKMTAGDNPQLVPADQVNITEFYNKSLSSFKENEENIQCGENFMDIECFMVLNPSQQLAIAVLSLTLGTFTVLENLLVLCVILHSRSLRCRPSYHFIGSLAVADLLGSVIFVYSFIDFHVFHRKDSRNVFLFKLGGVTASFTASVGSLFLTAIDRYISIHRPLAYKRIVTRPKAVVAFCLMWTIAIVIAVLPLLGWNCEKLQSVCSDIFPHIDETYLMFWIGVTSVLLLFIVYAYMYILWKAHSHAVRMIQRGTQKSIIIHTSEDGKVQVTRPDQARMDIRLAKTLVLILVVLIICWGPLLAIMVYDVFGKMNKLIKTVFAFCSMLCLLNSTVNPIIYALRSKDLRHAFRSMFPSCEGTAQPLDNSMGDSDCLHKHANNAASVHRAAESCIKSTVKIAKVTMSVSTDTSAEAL
Sequence of GR (glucocorticoid receptor) (P04150 whole entry): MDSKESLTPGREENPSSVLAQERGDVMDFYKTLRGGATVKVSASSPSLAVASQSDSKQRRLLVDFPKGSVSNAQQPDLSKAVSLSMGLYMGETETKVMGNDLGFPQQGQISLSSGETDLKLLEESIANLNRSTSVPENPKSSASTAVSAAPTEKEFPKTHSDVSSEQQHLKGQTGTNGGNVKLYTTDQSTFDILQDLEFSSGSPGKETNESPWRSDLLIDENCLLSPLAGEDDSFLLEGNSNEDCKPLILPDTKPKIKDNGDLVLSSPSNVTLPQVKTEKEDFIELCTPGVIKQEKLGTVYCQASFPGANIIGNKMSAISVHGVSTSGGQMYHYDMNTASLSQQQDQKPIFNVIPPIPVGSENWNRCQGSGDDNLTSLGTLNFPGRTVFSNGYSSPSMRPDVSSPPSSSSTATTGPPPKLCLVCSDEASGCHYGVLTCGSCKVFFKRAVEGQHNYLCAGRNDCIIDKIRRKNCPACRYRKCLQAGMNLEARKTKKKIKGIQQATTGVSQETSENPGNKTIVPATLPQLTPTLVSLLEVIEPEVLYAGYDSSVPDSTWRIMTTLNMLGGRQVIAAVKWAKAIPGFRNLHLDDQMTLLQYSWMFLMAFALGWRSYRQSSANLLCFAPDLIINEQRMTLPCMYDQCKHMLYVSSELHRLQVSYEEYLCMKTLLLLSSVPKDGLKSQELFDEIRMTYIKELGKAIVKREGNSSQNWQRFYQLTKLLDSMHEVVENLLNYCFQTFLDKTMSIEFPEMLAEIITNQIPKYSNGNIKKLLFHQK

## COc1ccc(CO[C@H]2CC[C@@]3(C)C(=CC[C@H]4[C@@H]5CC[C@H](C(C)=O)[C@@]5(C)CC[C@@H]43)C2)cc1 [AEF0117, 3β-(4-methoxybenzyloxy)pregn-5-en-20-one]
dogs
  adverse effects on blood pressure, heart rate, ECG and body temperature: did not show any adverse effects
[1]
  genotoxic or mutagenic activity: did not show any genotoxic or mutagenic activity
[2]; oral, 91-day, highest dose tested
  NOAEL at 91 day: 65 mg/kg/day
[2]; 91-d repeated oral
  NOAEL at 91 d: > 65 mg/kg/day
rats; female rats, 65 mg/kg/day, Day 122, vs vehicle
  change in thymus weight, absolute value: -17%
rats; 20 mg
  change in blood urea level: +13%
rats; 65 mg
  change in blood urea level: +10%
CD-1 Swiss male mice; [8]
  % Inhibition: 80%
  ID50: 0.005 mg/kg
  ID100: 0.015 mg/kg
CD-1 Swiss male mice; mice, 15 µg kg^−1 oral
  i.v. self-administration of WIN55,212-2: significantly reduced
Mice [3]
  THC's effects on social interaction: inhibited
Mice [3]; [9]
  % Inhibition: 100%
  ID50: 0.005 mg/kg
  ID100: 0.015 mg/kg
Mice [4]
  Overall effect: precipitated withdrawal in THC-dependent mice: No
Mice [5]
  Overall effect: increase in glucocorticoid secretion: No
Healthy volunteers; 0.6-6 mg vs placebo
  ARCI 49 sub-scores: No relevant trend
  Bond and Lader VAS (alertness, contentedness, calmness): No relevant differences between groups
Healthy volunteers; 0.6-6 mg vs placebo, except one outlier participant
  POMS 65 derived sub-scores: no dose related trend
Healthy volunteers; all doses 0.6-6 mg, Day 1 and Day 8
  C-SSRS: number of subjects with suicidal ideation or behavior: 0 n (%)
Volunteers with CUD; 1 mg, global crossover analysis
  cannabis self-administration: reduced
Volunteers with CUD; Treatment or Treatment x Dose, McNemar's test
  number of individuals choosing to self-administer cannabis: no significant effect
[6]
  AUC: 41.6 µg·h/mL
  Cmax: 4.36 µg/mL
[7]
  inhibition at 10 µM: 22%
Human CB1
  effect on THC's effects on cAMP: without modifying

— PMC10287566, “Signaling-specific inhibition of the CB1 receptor for cannabis use disorder: phase 1 and phase 2a randomized trials” (Nature Medicine, 2023)
